Reference: patent US20250340557A1, “PYRIMIDINE DERIVATIVE” (ASKA PHARMACEUTICAL CO., LTD., priority 2022, published 2025)

Target: T1, human mPGES-1 (Homo sapiens, UniProt O14684)
T1 construct: made in house; host or cells: COS-1 cells (transient transfection; microsomal fraction used as enzyme)
T1 sequence (O14684 1-152): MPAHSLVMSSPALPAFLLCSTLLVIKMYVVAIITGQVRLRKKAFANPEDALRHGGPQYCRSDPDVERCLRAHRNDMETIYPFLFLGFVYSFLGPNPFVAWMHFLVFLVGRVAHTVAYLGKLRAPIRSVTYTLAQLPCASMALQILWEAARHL
Experiment: Test for mPGES-1 inhibitory activity (microsomal enzyme, PGE2 EIA)
Format: biochemical
Settings: microsomes from COS-1 cells transfected with human mPGES-1 cDNA; substrate PGH2 1 μM; 4° C., 4 minutes; PGE2 measured by EIA; read-out: h mPGES1 IC50
How it was run: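 IC50 values were derived from EIA-quantified PGE2 after a 4 min, 4 °C reaction with PGH2 at 1 μM final, stopped with ferric chloride/citric acid. Beforehand, compound (2% DMSO final) sat 15 min at 4 °C with human mPGES-1 microsomes from transiently transfected COS-1 cells. Buffer was sodium phosphate pH 7.2 containing 2.5 mM reduced glutathione and 1 mM EDTA.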

Row | SMILES | IC50 [nM]
1 | Cc1nc(-c2c(C(F)(F)F)ccc(CNC(=O)[C@H]3CC[C@H](OCc4ccc(F)cc4F)CC3)c2F)[nH]c(=O)c1F [Example 126, trans-4-[(2,4-difluorobenzyl)oxy]-N-[2-fluoro-3-(5-fluoro-4-methyl-6-oxo-1,6-dihydropyrimidin-2-yl)-4-(trifluoromethyl)benzyl]cyclohexane-1-carboxamide] | < 1
2 | Cc1nc(-c2c(C(F)(F)F)ccc(CNC(=O)[C@H]3CC[C@H](OCc4ccc(F)c(F)c4)CC3)c2F)[nH]c(=O)c1F [Example 127, trans-4-[(3,4-difluorobenzyl)oxy]-N-[2-fluoro-3-(5-fluoro-4-methyl-6-oxo-1,6-dihydropyrimidin-2-yl)-4-(trifluoromethyl)benzyl]cyclohexane-1-carboxamide] | < 1
3 | Cc1nc(-c2c(C(F)(F)F)ccc(CNC(=O)[C@H]3CC[C@H](OCc4cccc(C(F)(F)F)c4)CC3)c2F)[nH]c(=O)c1F [Example 130, trans-N-[2-fluoro-3-(5-fluoro-4-methyl-6-oxo-1,6-dihydropyrimidin-2-yl)-4-(trifluoromethyl)benzyl]-4-{[3-(trifluoromethyl)benzyl]oxy}cyclohexane-1-carboxamide] | < 1
4 | CCc1nc(-c2c(C(F)(F)F)ccc(CNC(=O)[C@H]3CC[C@H](OCc4ccc(F)cc4F)CC3)c2F)[nH]c(=O)c1F [Example 132, trans-4-[(2,4-difluorobenzyl)oxy]-N-[3-(4-ethyl-5-fluoro-6-oxo-1,6-dihydropyrimidin-2-yl)-2-fluoro-4-(trifluoromethyl)benzyl]cyclohexane-1-carboxamide] | 21
5 | CCc1nc(-c2c(C(F)(F)F)ccc(CNC(=O)[C@H]3CC[C@H](OCc4ccc(F)c(F)c4)CC3)c2F)[nH]c(=O)c1F [Example 133, trans-4-[(3,4-difluorobenzyl)oxy]-N-[3-(4-ethyl-5-fluoro-6-oxo-1,6-dihydropyrimidin-2-yl)-2-fluoro-4-(trifluoromethyl)benzyl]cyclohexane-1-carboxamide] | 27
6 | O=c1cc(C(F)(F)F)nc(-c2c(C(F)(F)F)ccc(CNC(=O)[C@H]3C[C@H](OCc4ccccc4)C3)c2F)[nH]1 [Example 134, trans-3-(benzyloxy)-N-{2-fluoro-3-[6-oxo-4-(trifluoromethyl)-1,6-dihydropyrimidin-2-yl]-4-(trifluoromethyl)benzyl}cyclobutane-1-carboxamide] | < 10
7 | O=c1cc(C(F)(F)F)nc(-c2c(C(F)(F)F)ccc(CNC(=O)[C@H]3C[C@@H](OCc4ccccc4Cl)C3)c2F)[nH]1 [Example 137, cis-3-[(2-chlorobenzyl)oxy]-N-{2-fluoro-3-[6-oxo-4-(trifluoromethyl)-1,6-dihydropyrimidin-2-yl]-4-(trifluoromethyl)benzyl}cyclobutane-1-carboxamide] | 2.9
8 | O=c1cc(C(F)(F)F)nc(-c2c(C(F)(F)F)ccc(CNC(=O)[C@H]3C[C@H](OCc4cccc(Cl)c4)C3)c2F)[nH]1 [Example 138, trans-3-[(3-chlorobenzyl)oxy]-N-{2-fluoro-3-[6-oxo-4-(trifluoromethyl)-1,6-dihydropyrimidin-2-yl]-4-(trifluoromethyl)benzyl}cyclobutane-1-carboxamide] | < 1
9 | O=c1cc(C(F)(F)F)nc(-c2c(C(F)(F)F)ccc(CNC(=O)[C@H]3C[C@H](OCc4ccc(Cl)cc4)C3)c2F)[nH]1 [Example 140, trans-3-[(4-chlorobenzyl)oxy]-N-{2-fluoro-3-[6-oxo-4-(trifluoromethyl)-1,6-dihydropyrimidin-2-yl]-4-(trifluoromethyl)benzyl}cyclobutane-1-carboxamide] | 1
10 | O=c1cc(C(F)(F)F)nc(-c2c(C(F)(F)F)ccc(CNC(=O)[C@H]3C[C@H](OCc4ccccc4C(F)(F)F)C3)c2F)[nH]1 [Example 142, trans-N-{2-fluoro-3-[6-oxo-4-(trifluoromethyl)-1,6-dihydropyrimidin-2-yl]-4-(trifluoromethyl)benzyl}-3-{[2-(trifluoromethyl)benzyl]oxy}cyclobutane-1-carboxamide] | < 1
11 | O=c1cc(C(F)(F)F)nc(-c2c(C(F)(F)F)ccc(CNC(=O)[C@H]3C[C@@H](OCc4ccccc4C(F)(F)F)C3)c2F)[nH]1 [Example 143, cis-N-{2-fluoro-3-[6-oxo-4-(trifluoromethyl)-1,6-dihydropyrimidin-2-yl]-4-(trifluoromethyl)benzyl}-3-{[2-(trifluoromethyl)benzyl]oxy}cyclobutane-1-carboxamide] | 28

Continued, values first:

Row | IC50 [nM] | SMILES
12 | 19 | CCc1nc(-c2c(C(F)(F)F)ccc(CNC(=O)[C@H]3CC[C@H](OCc4ccc(Cl)cc4)CC3)c2F)[nH]c(=O)c1F [Example 125, trans-4-[(4-chlorobenzyl)oxy]-N-[3-(4-ethyl-5-fluoro-6-oxo-1,6-dihydropyrimidin-2-yl)-2-fluoro-4-(trifluoromethyl)benzyl]cyclohexane-1-carboxamide]
13 | 13 | Cc1nc(-c2c(C(F)(F)F)ccc(CNC(=O)[C@H]3CC[C@H](OCc4ccc(Cl)cc4F)CC3)c2F)[nH]c(=O)c1F [Example 128, trans-4-[(4-chloro-2-fluorobenzyl)oxy]-N-[2-fluoro-3-(5-fluoro-4-methyl-6-oxo-1,6-dihydropyrimidin-2-yl)-4-(trifluoromethyl)benzyl]cyclohexane-1-carboxamide]
14 | 25 | CCc1cc(=O)[nH]c(-c2c(C(F)(F)F)ccc(CNC(=O)[C@H]3CC[C@H](OCc4ccc(F)cc4F)CC3)c2F)n1 [Example 129, trans-4-[(2,4-difluorobenzyl)oxy]-N-[3-(4-ethyl-6-oxo-1,6-dihydropyrimidin-2-yl)-2-fluoro-4-(trifluoromethyl)benzyl]cyclohexane-1-carboxamide]
15 | < 1 | Cc1nc(-c2c(C(F)(F)F)ccc(CNC(=O)[C@H]3CC[C@H](OCc4cc(F)cc(Cl)c4)CC3)c2F)[nH]c(=O)c1F [Example 131, trans-4-[(3-chloro-5-fluorobenzyl)oxy]-N-[2-fluoro-3-(5-fluoro-4-methyl-6-oxo-1,6-dihydropyrimidin-2-yl)-4-(trifluoromethyl)benzyl]cyclohexane-1-carboxamide]
16 | 6.4 | O=c1cc(C(F)(F)F)nc(-c2c(C(F)(F)F)ccc(CNC(=O)[C@H]3C[C@@H](OCc4ccccc4)C3)c2F)[nH]1 [Example 135, cis-3-(benzyloxy)-N-{2-fluoro-3-[6-oxo-4-(trifluoromethyl)-1,6-dihydropyrimidin-2-yl]-4-(trifluoromethyl)benzyl}cyclobutane-1-carboxamide]
17 | 2 | O=c1cc(C(F)(F)F)nc(-c2c(C(F)(F)F)ccc(CNC(=O)[C@H]3C[C@H](OCc4ccccc4Cl)C3)c2F)[nH]1 [Example 136, trans-3-[(2-chlorobenzyl)oxy]-N-{2-fluoro-3-[6-oxo-4-(trifluoromethyl)-1,6-dihydropyrimidin-2-yl]-4-(trifluoromethyl)benzyl}cyclobutane-1-carboxamide]
18 | < 1 | O=c1cc(C(F)(F)F)nc(-c2c(C(F)(F)F)ccc(CNC(=O)[C@H]3C[C@@H](OCc4ccc(Cl)cc4)C3)c2F)[nH]1 [Example 141, cis-3-[(4-chlorobenzyl)oxy]-N-{2-fluoro-3-[6-oxo-4-(trifluoromethyl)-1,6-dihydropyrimidin-2-yl]-4-(trifluoromethyl)benzyl}cyclobutane-1-carboxamide]
19 | < 1 | O=c1cc(C(F)(F)F)nc(-c2c(C(F)(F)F)ccc(CNC(=O)[C@H]3C[C@H](OCc4cccc(C(F)(F)F)c4)C3)c2F)[nH]1 [Example 144, trans-N-{2-fluoro-3-[6-oxo-4-(trifluoromethyl)-1,6-dihydropyrimidin-2-yl]-4-(trifluoromethyl)benzyl}-3-{[3-(trifluoromethyl)benzyl]oxy}cyclobutane-1-carboxamide]

Same assay, conditions: microsomes of COS-1 cells transfected with human mPGES-1 cDNA; PGH2 1 μM; 4° C., 4 minutes; PGE2 by EIA; read-out: h mPGES1 IC50

Row | SMILES | IC50 [nM]
20 | O=c1cc(C(F)(F)F)nc(-c2c(C(F)(F)F)ccc(CNC(=O)[C@H]3C[C@@H](OCc4ccc(C(F)(F)F)cc4)C3)c2F)[nH]1 [Example 147, cis-N-{2-fluoro-3-[6-oxo-4-(trifluoromethyl)-1,6-dihydropyrimidin-2-yl]-4-(trifluoromethyl)benzyl}-3-{[4-(trifluoromethyl)benzyl]oxy}cyclobutane-1-carboxamide] | < 1
21 | O=c1cc(C(F)(F)F)nc(-c2c(C(F)(F)F)ccc(CNC(=O)[C@H]3C[C@H](OCc4ccc(F)cc4F)C3)c2F)[nH]1 [Example 148, trans-3-[(2,4-difluorobenzyl)oxy]-N-{2-fluoro-3-[6-oxo-4-(trifluoromethyl)-1,6-dihydropyrimidin-2-yl]-4-(trifluoromethyl)benzyl}cyclobutane-1-carboxamide] | < 1

Continued, values first:

Row | IC50 [nM] | SMILES
22 | 98 | O=c1cc(C(F)(F)F)nc(-c2c(C(F)(F)F)ccc(CNC(=O)[C@H]3C[C@@H](OCc4cccc(C(F)(F)F)c4)C3)c2F)[nH]1 [Example 145, cis-N-{2-fluoro-3-[6-oxo-4-(trifluoromethyl)-1,6-dihydropyrimidin-2-yl]-4-(trifluoromethyl)benzyl}-3-{[3-(trifluoromethyl)benzyl]oxy}cyclobutane-1-carboxamide]
23 | 2.1 | O=c1cc(C(F)(F)F)nc(-c2c(C(F)(F)F)ccc(CNC(=O)[C@H]3C[C@H](OCc4ccc(C(F)(F)F)cc4)C3)c2F)[nH]1 [Example 146, trans-N-{2-fluoro-3-[6-oxo-4-(trifluoromethyl)-1,6-dihydropyrimidin-2-yl]-4-(trifluoromethyl)benzyl}-3-{[4-(trifluoromethyl)benzyl]oxy}cyclobutane-1-carboxamide]
